The results in this text go back to patent US8802664B2 (Bioproject, priority 2010, dated 2014).

This assay deals with T1, human H4 receptor (Homo sapiens, UniProt Q9H3N8).
T1 construct: expressed in transfected cells
Briefly: [3H]Histamine binding on membranes of CHO cells stably expressing human H4 receptor. How it is done:
CHO cells stably expressing human H4 receptor were grown until sub-confluence and centrifuged at 300 g 15 minutes at 4° C. Pellets were resuspended in buffer I Tris-HCl 50 mM, MgCl2 10 mM, NaCl 140 mM, pH=7.4 supplemented by a 1/50 dilution of a mix of protease inhibitors. The obtained suspension is stirred gently and submitted to a […] exerted through a syringe. The cell lysate is then centrifuged at 300 g 15 minutes at 4° C. in order to eliminate nucleus and cell scraps. The obtained supernatant was then centrifuged at 48000 g for 30 minutes at 4° C. The final pellet is resuspended in buffer I with a potter homogenizer. Aliquots were frozen in liquid nitrogen and stored until use at −80° C. Protein content is measured by the Bradford method.
Defreezed membranes were diluted at a final concentration of 20 μg/180 μL/well in a binding buffer containing 50 mM Tris/HCl, 0.5 mM EDTA, pH=7.4 and distributed in 96 well polystyrene microplate. [^3H] […] Non specific binding was estimated in the presence of 10 μM BP1.2404 (JNJ 7777120). The reaction was terminated by filtration through GF/B filters pre-soaked 2 hours at 4° C. in […]. Filters were rinsed 3 times with 250 μl of ice cold incubation binding buffer.
The filter-bound radioactivity was measured in a liquid scintillation counter Microbeta TRILUX® with 50 μl of scintillation fluid.
The hH4 binding investigated by use of [^3H]

T1 sequence (Q9H3N8 whole entry): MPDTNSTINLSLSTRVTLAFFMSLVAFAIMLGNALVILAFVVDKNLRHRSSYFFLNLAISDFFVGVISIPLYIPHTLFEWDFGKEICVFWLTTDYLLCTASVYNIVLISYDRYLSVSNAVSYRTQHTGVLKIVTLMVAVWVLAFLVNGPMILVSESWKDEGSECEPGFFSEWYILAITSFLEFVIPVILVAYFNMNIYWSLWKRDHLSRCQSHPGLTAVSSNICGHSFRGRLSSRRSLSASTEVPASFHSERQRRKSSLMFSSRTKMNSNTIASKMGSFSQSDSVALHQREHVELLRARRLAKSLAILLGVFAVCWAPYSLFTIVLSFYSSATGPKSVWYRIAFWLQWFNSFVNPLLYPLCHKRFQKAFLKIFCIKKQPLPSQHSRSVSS

As for `CC(=O)c1cccc(-c2cccc(C(OC3CCN(C)CC3)c3nc4ccccc4[nH]3)c2)c1` (stereo not drawn) [Example 110, 1-{3′-[(1H-benzimidazol-2-yl)(1-methylpiperidin-4-yloxy)methyl]biphenyl-3-yl}ethanone], the Ki or IC50 activity class was less than 300 nM.

`CN1CCC(OC(c2cccc(-c3ccc(F)cc3)c2)c2nc3ccccc3s2)CC1` (stereo not drawn) [Example 136, 2-[(4′-fluorobiphenyl-3-yl)(1-methylpiperidin-4-yloxy)methyl]benzothiazole] had a Ki or IC50 activity class of less than 300 nM.

The compound `CN1CCC(OC(c2cccc(SCCCCNC(=N)N)c2)c2nc3ccccc3[nH]2)CC1` (stereo not drawn) [Example 444, N-(4-{3-[(1H-benzimidazol-2-yl)(1-methylpiperidin-4-yloxy)methyl]phenylsulfanyl}butyl)guanidine] yielded a Ki or IC50 activity class of less than 300 nM.

The compound `CN1CCC(OC(c2cccc(C(=O)N(C)c3ccccc3)c2)c2nc3ccccc3s2)CC1` (stereo not drawn) [Example 223, 3-[benzothiazol-2-yl(1-methylpiperidin-4-yloxy)methyl]-N-methyl-N-phenylbenzamide] came in with a Ki or IC50 activity class of less than 300 nM.

`CN1CCC(OC(c2cccc(OCCCN3CCOCC3)c2)c2nc3ccccc3s2)CC1` (stereo not drawn) [Example 350, 2-{(1-methylpiperidin-4-yloxy)[3-(3-morpholin-4-yl-propoxy)phenyl]methyl}benzothiazole] yielded a Ki or IC50 activity class of less than 1000 nM.

The compound `CN1CCC(OC(c2cccc(CCCNC(=O)OC(C)(C)C)c2)c2nc3ccccc3[nH]2)CC1` (stereo not drawn) [Example 313, N-tert-butoxycarbonyl-N′-(3-{3-[(1H-benzimidazol-2-yl)(1-methylpiperidin-4-yloxy)methyl]phenyl}propyl)amine] gave a Ki or IC50 activity class of less than 300 nM.

Turning to `CN1CCC(OC(c2cc(F)cc(F)c2)c2nc3ccccc3s2)CC1` (stereo not drawn) [Example 15, 2-[(3,5-difluorophenyl)(1-methyl-piperidin-4-yloxy)methyl]benzothiazole], the Ki or IC50 activity class was less than 300 nM.

As to `CN1CCC(OC(c2cccc(S(C)(=O)=O)c2)c2nc3ccccc3s2)CC1` (stereo not drawn) [Example 203, 2-[(3-methanesulfonylphenyl)(1-methylpiperidin-4-yloxy)methyl]benzothiazole], the Ki or IC50 activity class is less than 1000 nM.

In turn, `CN1CCC(OC(c2cccc(N3CCC(O)CC3)c2)c2nc3ccccc3s2)CC1` (stereo not drawn) [Example 411, 1-{3-[benzothiazol-2-yl(1-methylpiperidin-4-yloxy)methyl]phenyl}piperidin-4-ol] had a Ki or IC50 activity class of less than 1000 nM.

`COc1ccc(F)c(C(OC2CCN(C)CC2)c2nc3ccccc3[nH]2)c1` (stereo not drawn) [Example 486] registered a Ki or IC50 activity class of less than 30 nM.

In turn, `CN1CCC(OC(c2cccc(C#CC3CCNCC3)c2)c2nc3ccccc3[nH]2)CC1` (stereo not drawn) [Example 376, 2-[(1-methylpiperidin-4-yloxy)(3-piperidin-4-ylethynyl-phenyl)methyl]-1H-benzimidazole] returned a Ki or IC50 activity class of less than 1000 nM.

On to `CN1CCC(OC(c2cccc(C(=O)N(C)Cc3ccccc3)c2)c2nc3ccccc3s2)CC1` (stereo not drawn) [Example 219, 3-[benzothiazol-2-yl(1-methylpiperidin-4-yloxy)methyl]-N-benzyl-N-methylbenzamide], for which the Ki or IC50 activity class was less than 1000 nM.

`CN1CCC(OC(c2ccc3ccsc3c2)c2nc3ccccc3[nH]2)CC1` (stereo not drawn) [Example 556, 2-[benzo[b]thiophen-6-yl(1-methylpiperidin-4-yloxy)methyl]-1H-benzimidazole] came in with a Ki or IC50 activity class of less than 30 nM.

`CN1CCC(OC(c2cccc(CCCCCN)c2)c2nc3ccccc3[nH]2)CC1` (stereo not drawn) [Example 312, 5-{3-[(1H-benzimidazol-2-yl)(1-methylpiperidin-4-yloxy)methyl]phenyl}pentylamine] came in with a Ki or IC50 activity class of less than 300 nM.

Turning to `CN1CCC(OC(c2cccc(OC3CCC(N)CC3)c2)c2nc3ccccc3s2)CC1` (stereo not drawn) [Example 477], the Ki or IC50 activity class is less than 1000 nM.

Regarding `CN1CCC(OC(c2cccc(SCC(N)=O)c2)c2nc3ccccc3s2)CC1` (stereo not drawn) [Example 263, 2-{3-[benzothiazol-2-yl(1-methylpiperidin-4-yloxy)methyl]phenylsulfanyl}acetamide], the Ki or IC50 activity class was less than 1000 nM.

Take `Cc1ccc2sc(C(OC3CCN(C)CC3)c3ccccc3)nc2c1` (stereo not drawn) [Example 29, 5-methyl-2-[(1-methylpiperidin-4-yloxy)phenylmethyl]benzothiazole]: the Ki or IC50 activity class was less than 1000 nM.

Compound `Cc1cccc(C(NC2CCN(C)CC2)c2nc3ccccc3[nH]2)c1` (stereo not drawn) [Example 84, [(1H-benzimidazol-2-yl)(m-tolyl)methyl](1-methylpiperidin-4-yl)amine] showed a Ki or IC50 activity class of less than 1000 nM.

On to `CN1CCC(OC(c2cccc(C3=CCNCC3)c2)c2nc3ccccc3[nH]2)CC1` (stereo not drawn) [Example 338, 2-{(1-methylpiperidin-4-yloxy)[3-(1,2,3,6-tetrahydro-pyridin-4-yl)phenyl]methyl}-1H-benzimidazole], for which the Ki or IC50 activity class is less than 300 nM.

Consider `CN1CCC(OC(c2cccc(OCCF)c2)c2nc3ccccc3s2)CC1` (stereo not drawn) [Example 163, 2-[[3-(2-fluoroethoxy)phenyl](1-methylpiperidin-4-yloxy)methyl]benzothiazole], for which the Ki or IC50 activity class is less than 30 nM.

In the case of `CN1CCC(OC(c2cccc(C#CCCCCNC(=N)N)c2)c2nc3ccccc3s2)CC1` (stereo not drawn) [Example 342, N-(6-{3-[benzothiazol-2-yl(1-methylpiperidin-4-yloxy)methyl]phenyl}hex-5-ynyl)guanidine], the Ki or IC50 activity class is less than 300 nM.

For `CN1CCC(OC(c2cccc(SCC3CNC(=O)O3)c2)c2nc3ccccc3[nH]2)CC1` (stereo not drawn) [Example 457], the Ki or IC50 activity class was less than 30 nM.

Turning to `CN1CCC(OC(c2cccc(C=CS(=O)(=O)c3ccccc3)c2)c2nc3ccccc3s2)CC1` (stereo not drawn) [Example 209, 2-[[3-(2-benzenesulfonylvinyl)phenyl](1-methylpiperidin-4-yloxy)methyl]benzothiazole], the Ki or IC50 activity class was less than 300 nM.

In turn, `CC(=O)c1ccc(-c2cccc(C(OC3CCN(C)CC3)c3nc4ccccc4[nH]3)c2)cc1` (stereo not drawn) [Example 108, 1-{3′-[(1H-benzimidazol-2-yl)(1-methylpiperidin-4-yloxy)methyl]biphenyl-4-yl}ethanone] registered a Ki or IC50 activity class of less than 300 nM.

As for `COC(=O)CSc1cccc(C(OC2CCN(C)CC2)c2nc3ccccc3s2)c1` (stereo not drawn) [Example 160, {3-[benzothiazol-2-yl(1-methylpiperidin-4-yloxy)methyl]phenylsulfanyl}acetic acid methyl ester], the Ki or IC50 activity class was less than 30 nM.

In the case of `CN1CCC(OC(c2cccc(OCc3cccc(C(F)(F)F)c3)c2)c2nc3ccccc3s2)CC1` (stereo not drawn) [Example 187, 2-{(1-methylpiperidin-4-yloxy)[3-(3-trifluoromethyl-benzyloxy)phenyl]methyl}benzothiazole], the Ki or IC50 activity class was less than 30 nM.

In the case of `CN1CCC(OC(c2cccc(SCCCCCCNC(=N)N)c2)c2nc3ccccc3[nH]2)CC1` (stereo not drawn) [Example 458], the Ki or IC50 activity class was less than 300 nM.

Turning to `CN1CCC(OC(c2cccc(C#N)c2)c2nc3ccccc3s2)CC1` (stereo not drawn) [Example 197, 3-[benzothiazol-2-yl(1-methylpiperidin-4-yloxy)methyl]benzonitrile], the Ki or IC50 activity class was less than 30 nM.

`CN1CCC(OC(c2cccc(N3CC4CC(N)CC4C3)c2)c2nc3ccccc3s2)CC1` (stereo not drawn) [Example 471] yielded a Ki or IC50 activity class of less than 300 nM.

Take `CN1CCC(OC(c2cccc(SCCNC(=N)N)c2)c2nc3ccccc3[nH]2)CC1` (stereo not drawn) [Example 278, N-(2-{3-[(1H-benzimidazol-2-yl)(1-methylpiperidin-4-yloxy)methyl]phenylsulfanyl}ethyl)guanidine]: the Ki or IC50 activity class was less than 30 nM.

The compound `CN1CCC(NC(c2cccc(Oc3ccccc3)c2)c2nc3ccccc3[nH]2)CC1` (stereo not drawn) [Example 85, [(1H-benzimidazol-2-yl)(3-phenoxyphenyl)methyl](1-methylpiperidin-4-yl)amine] had a Ki or IC50 activity class of less than 300 nM.

`CN1CCC(OC(c2cccc(N3CC(O)C3)c2)c2nc3ccccc3s2)CC1` (stereo not drawn) [Example 403, 1-{3-[benzothiazol-2-yl(1-methylpiperidin-4-yloxy)methyl]phenyl}azetidin-3-ol] gave a Ki or IC50 activity class of less than 300 nM.

`CN1CCC(OC(c2cccc(-c3ccccc3CO)c2)c2nc3ccccc3s2)CC1` (stereo not drawn) [Example 127, {3′-[benzothiazol-2-yl(1-methylpiperidin-4-yloxy)methyl]biphenyl-2-yl}methanol] had a Ki or IC50 activity class of less than 300 nM.

On to `CN1CCC(OC(c2cccc(-c3cccc(CC#N)c3)c2)c2nc3ccccc3s2)CC1` (stereo not drawn) [Example 98, {3′-[benzothiazol-2-yl(1-methylpiperidin-4-yloxy)methyl]biphenyl-3-yl}acetonitrile], for which the Ki or IC50 activity class is less than 300 nM.

In turn, `CN1CCC(OC(c2cccc(C#CCCCNC(=N)NC(=O)OC(C)(C)C)c2)c2nc3ccccc3[nH]2)CC1` (stereo not drawn) [Example 357, N-tert-butoxycarbonyl-N′-(5-{3-[(1H-benzimidazol-2-yl)(1-methylpiperidin-4-yloxy)methyl]phenyl}pent-4-ynyl)guanidine] came in with a Ki or IC50 activity class of less than 300 nM.

Consider `CN1CCC(NC(c2cccc(Br)c2)c2nc3ccccc3s2)CC1` (stereo not drawn) [Example 82, [benzothiazol-2-yl(3-bromophenyl)methyl](1-methylpiperidin-4-yl)amine], for which the Ki or IC50 activity class is less than 300 nM.
